Results published in paper PMC4318710 (Bioorganic & medicinal chemistry letters, 2015).

Tests used:
[1] = system: C57BL/6 mice; test: in vivo serum iron levels in mice after intraperitoneal peptide injection; settings: 50-100 nmoles/mouse
[2] = stability on prolonged storage in DMSO; type: physicochemical; settings: 10 mM solution in DMSO, room temperature, 30 days, LC/MS/MS

Row | Compound | serum iron at 6 and 24 h time points [1] | stability in DMSO [2] [%]
1 | CCCCCCCCCCCCCCCCNC(=O)CN(CC(N)=O)C(=O)CCCCCNC(=O)C[C@H](Cc1ccccc1)NC(=O)[C@H](CCCNC(=N)N)NC(=O)[C@H](CS)NC(=O)[C@H](CCCNC(=N)N)NC(=O)C[C@@H]1CCCN1C(=O)[C@@H](NC(=O)[C@H](Cc1c[nH]cn1)NC(=O)[C@@H](NC(=O)CNCC(=O)O)[C@@H](C)O)C(c1ccccc1)c1ccccc1 [PR73] | decreased serum iron | 
2 | CCCCCCCCCCCCCCCCNC(=O)CN(CC(N)=O)C(=O)CCCCCNC(=O)C[C@H](Cc1ccccc1)NC(=O)[C@H](CCCNC(=N)N)NC(=O)[C@H](CSC(=CP(=O)(OCC)OCC)P(=O)(OCC)OCC)NC(=O)[C@H](CCCNC(=N)N)NC(=O)C[C@@H]1CCCN1C(=O)[C@@H](NC(=O)[C@H](Cc1c[nH]cn1)NC(=O)[C@@H](NC(=O)CNCC(=O)O)[C@@H](C)O)C(c1ccccc1)c1ccccc1 [PR73SH] | decreased serum iron | 99.5±0.5
